Experimental data published in US12492174B2, “Morpholine-3-carboxamide derivatives as prostaglandin E2 receptor 4 (EP4) agonists for the treatment of gastrointestinal and pulmonary diseases” (NXERA PHARMA UK LIMITED, priority 2022, dated 2025).

Assays:
human EP4 = biological target: T1, human EP4 (Homo sapiens, UniProt P35408); experiment: cAMP Gs functional assay (HTRF cAMP dynamic-2); assay type: cell-based; conditions: for Emax: HEK293, HEK293 cells transfected with EP4 Bacmam virus, positive control 10 uM PGE2; for EC50: HEK293 cells transfected with EP4 Bacmam virus, 30 mins at 37° C., −Log of the molarity (M), read-out: cAMP human EP4 pEC50 (converted)
T1 construct: expressed in transfected cells; host or cells: HEK293 cells transduced with EP4 BacMam virus
Procedure: Cloning, Baculovirus generation, large scale infection of HEK293 cells and membrane preparation: Human prostaglandin E2 receptor 4 (EP4) was cloned into pBacMam expression vector (GeneScript, UK). Transposition of EP4 DNA was performed using Invitrogen's Bac-to-Bac Baculovirus Expression Systems. P0 baculovirus was generated by transfecting SF9 Cells with bacmid DNA using Cellfectin II transfection reagent (ThermoFisher Scientific, UK). Following P0 generation P1 virus was then generated ready for large scale infection and membrane preparation. HEK293 cells were grown in DMEM (ThermoFisher Scientific, UK), supplemented with 10% heat inactivated fetal bovine serum (FBS). Cells were infected at a seeding density of 3.5 million cells/mL in 500 cm^3 flasks at 5% v/v EP4 Bacman. Expression was carried out over a 36 hr period at 37° C. with 5% CO2. The cells were removed using PBS and a cell scrapper. The cell culture was centrifuged at 2500 RPM for 10 mins at 4° C. The supernatant was then poured off and the pellet stored at −80° C. The pellet was defrosted and re-suspended in 15 mL of homogenising buffer (20 mM HEPES, 10 mM EDTA, pH 7.4). Then homogenised in mechanical homogeniser (VMR) for 10 seconds. The membrane was centrifuged in centrifuge tubes at 40,000 g for 15 mins at 4° C. The supernatant was poured away and re-suspended in 15 mL of homogenising buffer. Homogenised for 20 seconds. The membrane was centrifuged at 40,000 g for 45 mins at 4° C. The membrane was re-suspended in 3 mL of storage buffer (20 mM HEPES, 0.1 mM EDTA, pH 7.4) mixing well. The resulting membranes were then stored at −80° C.
cAMP Gs Functional Assay: cAMP production following EP4 receptor activation was determined using the Homogeneous Time-Resolved Fluorescence (HTRF) cAMP dynamic-2 assay (Cisbio, France). HEK293 cells were transfected using a 0.5% EP4 Bacmam virus for 36 hours, before dissociating the cells, and freezing at −150° C.
On the day of testing, increasing concentration of test compounds, alongside positive controls (10 uM PGE2 (Tocris, Abingdon, UK)) and negative control (DMSO (Sigma-Aldrich, UK) were added to a ProxiPlate-384 Plus, White 384-shallow well Mircoplate, (PerkinElmer, USA) using the ECHO dispense.
Cells were defrosted in a water bath and resuspended in DMEM supplemented with 10% FBS before centrifuging at 1200 RPM for 5 mins to form a pellet. The pellet was resuspended in assay buffer (DMEM+0.5 mM IBMX (Tocris, Abingdon, UK)) to 0.5×10^6 cells/mL. Cell suspension, for a final assay concentration of 5000 cell/well was added using the multidrop to the pre-dispensed assay plate. The plate was then incubated at 37° C. for 30 mins, with 5% CO2. The cAMP production was determined as manufacturer's instructions, before plates were read on a PheraStar fluorescence plate reader (BMG LabTech, Germany).
The pEC50 values (−Log of the molarity (M) in mol/liter) were calculated from the mid-point of the curve using dotmatics as shown in Table 3.

[1] = Unidirectional Caco-2 cell permeability assay; assay type: in vitro ADME; conditions: human, n=2, apical pH 6.5, basolateral pH 7.4, 1 hour, 37° C.
Procedure: Caco-2 cells (ECACC) were seeded onto 24-well Transwell plates at 2×10^5 cells per well and used in confluent monolayers after a 21 day culture at 37° C. under 5% CO2. Test compounds were incubated at 10 μM, 0.2% DMSO final, n=2 in assay buffer (Hanks balanced salt solution supplemented with 25 mM HEPES, adjusted to pH 6.5). Hanks balanced salt solution supplemented with 25 mM HEPES, adjusted to pH 7.4 (0.2% DMSO final) was used for the basolateral chamber (as receiver).
Incubations were performed at 37° C., with samples removed from both donor and acceptor chambers at T=0 and 1 hour and compound analysed by mass spectrometry (LC-MS/MS) including an analytical internal standard (0.5 μM carbamazepine).
Apparent permeability (Papp) values are shown in Table 4 and were determined from the relationship:
Where V is the volume of each Transwell compartment (apical 125 μL, basolateral 600 μL), and concentrations are the relative MS responses for compound (normalized to internal standard) in the donor chamber before incubation and acceptor chamber at the end of the incubation Area=area of cells exposed for drug transfer (0.33 cm^2).
Lucifer Yellow (LY) was added to the apical buffer in all wells to assess viability of the cell layer. As LY cannot freely permeate lipophilic barriers, a high degree of LY transport indicates poor integrity of the cell layer and wells with a LY Papp>10×10^−6 cm/s were rejected.
Compound recovery from the wells was determined from MS responses (normalized to internal standard) in donor and acceptor chambers at the end of incubation compared to response in the donor chamber pre-incubation.

T1 sequence (P35408 whole entry): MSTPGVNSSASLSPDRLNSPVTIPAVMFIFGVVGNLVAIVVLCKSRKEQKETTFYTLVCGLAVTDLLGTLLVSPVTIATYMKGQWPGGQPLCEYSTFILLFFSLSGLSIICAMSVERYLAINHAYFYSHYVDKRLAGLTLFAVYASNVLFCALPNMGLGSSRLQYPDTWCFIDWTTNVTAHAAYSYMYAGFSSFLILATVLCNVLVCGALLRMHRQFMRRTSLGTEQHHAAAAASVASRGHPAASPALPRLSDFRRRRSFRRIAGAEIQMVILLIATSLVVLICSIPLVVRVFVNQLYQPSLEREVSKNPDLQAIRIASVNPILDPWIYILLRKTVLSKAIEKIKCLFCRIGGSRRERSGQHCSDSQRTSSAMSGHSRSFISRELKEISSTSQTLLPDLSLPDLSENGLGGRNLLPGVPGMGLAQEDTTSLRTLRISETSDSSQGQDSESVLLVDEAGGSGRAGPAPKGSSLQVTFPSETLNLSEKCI

| SMILES | Emax (human EP4) [%] | EC50 (human EP4) [M] | Papp A→B at 1 h, 10 μM [1] [nm/s] |
| --- | --- | --- | --- |
| NC(=O)c1ccc(-c2cc(CN3CCOC[C@@H]3C(=O)NC3(c4ccc(C(=O)O)cc4)CC3)ccc2O)cc1 [Example 34, (R)-4-(1-(4-((4′-carbamoyl-6-hydroxy-[1,1′-biphenyl]-3-yl)methyl)morpholine-3-carboxamido)cyclopropyl)benzoic acid] | 97 | 3.98e-10 | 3.9 |
| Cc1cc(S(N)(=O)=O)ccc1-c1ccnc(CN2CCOC[C@@H]2C(=O)N[C@@H](C)c2ccc(C(=O)O)cc2)c1 [Example 17, 4-[(1S)-1-[[(3R)-4-[[4-(2-methyl-4-sulfamoyl-phenyl)-2-pyridyl]methyl]morpholine-3-carbonyl]amino]ethyl]benzoic acid] | 98 | – | 1.2 |
| Cc1cc(C(N)=O)ccc1-c1cc(O)cc(CN2CCOC[C@H]2C(=O)N[C@H](C)c2ccc(C(=O)O)cc2)c1 [Example 38, 4-((R)-1-((S)-4-((4′-carbamoyl-5-hydroxy-2′-methyl-[1,1′-biphenyl]-3-yl)methyl)morpholine-3-carboxamido)ethyl)benzoic acid] | 94 | 2e-08 | < 1 |
| Cc1cc(C(N)=O)ccc1-c1cc(O)cc(CN2CCOC[C@@H]2C(=O)N[C@H](C)c2ccc(C(=O)O)cc2)c1 [Example 39, 4-((R)-1-((R)-4-((4′-carbamoyl-5-hydroxy-2′-methyl-[1,1′-biphenyl]-3-yl)methyl)morpholine-3-carboxamido)ethyl)benzoic acid] | 99 | 7.94e-11 | 3.5 |
| Cc1cc(C(N)=O)ccc1-c1cc(O)cc(CN2CCOC[C@H]2C(=O)N[C@@H](C)c2ccc(C(=O)O)cc2)c1 [Example 37, 4-((S)-1-((S)-4-((4′-carbamoyl-5-hydroxy-2′-methyl-[1,1′-biphenyl]-3-yl)methyl)morpholine-3-carboxamido)ethyl)benzoic acid] | – | > 1e-07 | < 1 |
| Cc1cc(C(N)=O)ccc1-c1cccc(CN2CCOC[C@@H]2C(=O)N[C@@H](C)c2ccc(C(=O)O)cc2)c1 [Example 7, 4-((S)-1-((R)-4-((4′-carbamoyl-2′-methyl-[1,1′-biphenyl]-3-yl)methyl)morpholine-3-carboxamido)ethyl)benzoic acid] | 99 | 1.58e-09 | 6.6 |
| Cc1cc(C(N)=O)ccc1-c1cc(O)cc(CN2CCOC[C@@H]2C(=O)N[C@@H](C)c2ccc(C(=O)O)c(O)c2)c1 [Example 18, 4-((S)-1-((R)-4-((4′-carbamoyl-5-hydroxy-2′-methyl-[1,1′-biphenyl]-3-yl)methyl)morpholine-3-carboxamido)ethyl)-2-hydroxybenzoic acid] | 99 | 3.98e-10 | 7.8 |
| Cc1cc(S(N)(=O)=O)ccc1-c1cc(CN2CCOC[C@@H]2C(=O)N[C@@H](C)c2ccc(C(=O)O)cc2)ccn1 [Example 16, 4-[(1S)-1-[[(3R)-4-[[2-(2-methyl-4-sulfamoyl-phenyl)-4-pyridyl]methyl]morpholine-3-carbonyl]amino]ethyl]benzoic acid] | 97 | 1.26e-07 | < 1 |
| Cc1cc(S(N)(=O)=O)ccc1-c1cncc(CN2CCOC[C@@H]2C(=O)N[C@@H](C)c2ccc(C(=O)O)c(O)c2)c1 [Example 21, 2-hydroxy-4-((S)-1-((R)-4-((5-(2-methyl-4-sulfamoylphenyl)pyridin-3-yl)methyl)morpholine-3-carboxamido)ethyl)benzoic acid] | 99 | 1.58e-08 | < 1 |
| NC(=O)c1ccc(-c2cccc(CN3CCOC[C@@H]3C(=O)NC3(c4ccc(C(=O)O)cc4)CC3)c2)c(O)c1 [Example 32, (R)-4-(1-(4-((4′-carbamoyl-2′-hydroxy-[1,1′-biphenyl]-3-yl)methyl)morpholine-3-carboxamido)cyclopropyl)benzoic acid] | 91 | 6.31e-10 | 1.5 |
| Cc1cc(C(N)=O)ccc1-c1cc(CN2CCOC[C@@H]2C(=O)N[C@@H](C)c2ccc(C(=O)O)cc2)ccn1 [Example 3, 4-[(1S)-1-[[(3R)-4-[[2-(4-carbamoyl-2-methyl-phenyl)-4-pyridyl]methyl]morpholine-3-carbonyl]amino]ethyl]benzoic acid] | 96 | 6.31e-08 | 5.7 |
| Cc1cc(C(N)=O)ccc1-c1cc(O)cc(CN2CCOC[C@@H]2C(=O)N[C@@H](C)c2ccc(C(=O)O)cc2)c1 [Example 10, 4-((S)-1-((R)-4-((4′-carbamoyl-5-hydroxy-2′-methyl-[1,1′-biphenyl]-3-yl)methyl)morpholine-3-carboxamido)ethyl)benzoic acid] | 98 | 2e-10 | < 1 |
| C[C@H](NC(=O)[C@H]1COCCN1Cc1ccc(O)c(-c2ccc(C(N)=O)cc2)c1)c1ccc(C(=O)O)cc1 [Example 23, 4-[(1S)-1-[[(3R)-4-[[3-(4-carbamoylphenyl)-4-hydroxy-phenyl]methyl]morpholine-3-carbonyl]amino]ethyl]benzoic acid] | 93 | 1e-08 | 4.8 |
| Cc1cc(C(N)=O)ccc1-c1cccc(CN2CCOC[C@@H]2C(=O)NCc2cc(F)c(C(=O)O)c(F)c2)c1 [Example 8, 4-[[[(3R)-4-[[3-(4-carbamoyl-2-methyl-phenyl)phenyl]methyl]morpholine-3-carbonyl]amino]methyl]-2,6-difluoro-benzoic acid] | 96 | 1.58e-07 | < 1 |
| Cc1cc(S(N)(=O)=O)ccc1-c1cc(O)cc(CN2CCOC[C@@H]2C(=O)N[C@@H](C)c2ccc(C(=O)O)c(O)c2)c1 [Example 22, 2-hydroxy-4-((S)-1-((R)-4-((5-hydroxy-2′-methyl-4′-sulfamoyl-[1,1′-biphenyl]-3-yl)methyl)morpholine-3-carboxamido)ethyl)benzoic acid] | 99 | 2.51e-10 | < 2 |
| C[C@H](NC(=O)[C@H]1COCCN1Cc1ccc(O)c(-c2ccc(S(N)(=O)=O)cc2)c1)c1ccc(C(=O)O)cc1 [Example 24, 4-[(1S)-1-[[(3R)-4-[[4-hydroxy-3-(4-sulfamoylphenyl)phenyl]methyl]morpholine-3-carbonyl]amino]ethyl]benzoic acid] | 96 | 2.51e-08 | 2.6 |
| Cc1cc(S(N)(=O)=O)ccc1-c1cccc(CN2CCOC[C@@H]2C(=O)N[C@@H](C)c2ccc(C(=O)O)c(O)c2)c1 [Example 25, 2-hydroxy-4-((S)-1-((R)-4-((2′-methyl-4′-sulfamoyl-[1,1′-biphenyl]-3-yl)methyl)morpholine-3-carboxamido)ethyl)benzoic acid] | 97 | 6.31e-09 | < 1 |
